Reference: article PMC10728220, “Novel 3-(pyrazol-4-yl)-2-(1H-indole-3-carbonyl)acrylonitrile derivatives induce intrinsic and extrinsic apoptotic death mediated P53 in HCT116 colon carcinoma” (Scientific Reports, 2023)
In brackets after ≈: the same amount, converted by molar mass.

Tests used:
[1] = tested on: normal human skin melanocyte cell line (HFB4); assay: Cytotoxic MTT assay, normal HFB4 cells; assay type: cell-based; conditions: 48 h treatment
Experimental: MTT protocol was performed to study the viability of cells after treatment with the tested compounds. The studied cell lines (A549 and HCT116) were cultured and grown in RPMI‐1640 media, while HFB4 cells were reserved in DMEM‐F12 media. Both media were supplemented with 10% FBS, 1% L‐glutamine, and 1% antibiotic–antimycotic mixture. The cell lines were grown at conditions of 37 °C and 5% CO2. 10 × 10^3 of A549, and HCT116 cells and the same count of normal melanocytes (HFB4) were cultured in a 96‐well plate. The selected cultured cells were kept at 37°C and 5% CO2 overnight. Then, the medium was discarded after 24 h of incubation, and 100 µL from different concentrations of the studied compounds dissolved in fresh medium without serum, with final concentrations of 100, 50, 25, 12.5, 6.25, 3.125, 1.56, and 0.78 µg/mL was added. The treated cells were then incubated for 48 h. After that, 50 µL of MTT was added into each well for 4 h for the formazan crystals to be formed. Finally, 200 µl of 10% sodium dodecyl sulphate (SDS) was added to each well, and plates were kept at room temperature overnight to allow the reaction to be stopped. The optical density at 575 nm was read using a microplate multi-well reader, and the percentage of cell viability was calculated. The dose–response curve was drawn to calculate the IC50 values for each compound using the prism GraphPad 5 program, [84]. 5 Fluorouracil, a commercial anticancer drug was used as a reference drug (positive control). Negative untreated cell control was used in this assay.

[2] = tested on: Human caspase-8; assay: ELISA caspase 8 production in HCT116; assay type: cell-based
Experimental: The production of caspase 8 was determined using various concentrations of 7f in a concertation-dependent manner. There was a gradual increase in the caspase 8 production level using the following concentrations (0.156, 0.312, 0.625, 1.25, 2.5, 5, and 10 ng/ml). The maximal increase in caspase 8 production was achieved by using 7f concentrations between 5 and 10 ng/ml (Fig. 8).
The quantitative measurements of Human caspases-3, -8, and -9 concentrations in HCT116 cell culture lysates were performed using ELISA assay. The protocols were followed up based on the manuscript instructions described in the following kits; Invitrogen human Caspase-3 Elisa Kit, Catalog # KHO1091, DRG® human Caspase-8 ELISA Kit, Catalog # (EIA-4863), and DRG® human Caspase-9 ELISA Kit, Catalog # (EIA-4860)respectively. In short, the procedure described in the above protocols was as instructed; all reagents, standards, and samples were prepared. Then, 100 μL of standard or samples were added to each well and incubated at room temperature for 2 h. Afterward, 100 μL of the prepared antibody (anti-rabbit-IgG-HRP) was added to all wells for 1 h at room temperature. […] All readings were measured immediately at a wavelength of 450 nm. From the readings of the standards, a standard curve was plotted using curve fitting software. Then, the concentrations for unknown samples and controls were measured from the standard curve.

[3] = tested on: CDK4; assay: RT-PCR gene expression, CDK4, in HCT116; assay type: cell-based, human; conditions: HCT116, 6.76 µg/mL, 48 h, relative to untreated control
Experimental: In this current research, relative gene expression related to apoptosis should be studied well because they were very interesting to understand the effect of our selected compound on this important biological process. HCT116 cells were treated with chalcone 7f (6.76µg/mL) for 48 h, and then subjected to qPCR analysis regarding control samples. The effect of chalcone 7f on the expression level of (Bax, p53, Bcl2, and CDK4) genes was assessed using the qPCR technique. […] As indicated in this schematic diagram, the expression of apoptotic genes (Bax and P53) was enhanced by the effect of chalcone 7f to reach (3.662, and 5.435) respectively, relative to the control.
Total RNA was extracted from the compound 7f-treated HCT116 cells and the untreated cells using the RNA Purification Kit GeneJET (Thermo scientific, ON, Canada) 0.1 µg of the extracted RNA was reverse transcribed into complementary DNA (cDNA) using High-Capacity cDNA Reverse Transcription Kit (Thermo Scientific, ON, Canada). qPCR was done using Brilliant SYBR Green qPCR master mix (Applied Biosystems, San Francisco, CA, USA) in One Step Plus Real-Time PCR System (Applied Biosystems, San Francisco, CA, USA). […] The relative gene expression was determined using the 2^−ΔΔCt equation after normalization to the expression of β-actin (housekeeping gene) (Qiagen, CA, USA)(10 pmol/µL)[85], [86]. […]

Compound: N#C/C(=C\c1cn(-c2ccccc2)nc1-c1ccc([N+](=O)[O-])cc1)C(=O)c1c[nH]c2ccccc12 [Compound 7f, (E)-2-(1H-Indole-3-carbonyl)-3-(3-(4-nitrophenyl)-1-phenyl-1H-pyrazol-4-yl)acrylonitrile]
- IC50 [1]: 56.7 µg/mL (≈ 123 µM)
- caspase 8 production, fold increase ([2]; HCT116 treated with 7f versus untreated): 3.788 fold
- caspase 8 production level ([2]; HCT116 treated with 7f, untreated 0.2914 ng/ml): 1.104 ng/mL
- RT-PCR fold change CDK4 [3]: 0.454 fold
